Test results: patent US6380257B1, “Aromatic di-keto derivatives, processes for their production and their use as a pharmaceutical” (Aventis Pharma Deutschland GmbH, priority 1999, dated 2002)
Like-named read-outs stand apart in the source and are kept apart here. Each block holds one molecule with its values, some of them ahead of it.

Experiments:
[1] = target: T1, glucose-6-phosphate translocase from rat liver microsomes (Rattus norvegicus, UniProt F7EWB7); assay: Inhibition of glucose-6-phosphate translocase from rat liver microsomes; type: biochemical
T1 construct: glucose-6-phosphate translocase from rat liver microsomes; from tissue; host or cells: rat liver microsomes
T1 sequence (F7EWB7 1-429): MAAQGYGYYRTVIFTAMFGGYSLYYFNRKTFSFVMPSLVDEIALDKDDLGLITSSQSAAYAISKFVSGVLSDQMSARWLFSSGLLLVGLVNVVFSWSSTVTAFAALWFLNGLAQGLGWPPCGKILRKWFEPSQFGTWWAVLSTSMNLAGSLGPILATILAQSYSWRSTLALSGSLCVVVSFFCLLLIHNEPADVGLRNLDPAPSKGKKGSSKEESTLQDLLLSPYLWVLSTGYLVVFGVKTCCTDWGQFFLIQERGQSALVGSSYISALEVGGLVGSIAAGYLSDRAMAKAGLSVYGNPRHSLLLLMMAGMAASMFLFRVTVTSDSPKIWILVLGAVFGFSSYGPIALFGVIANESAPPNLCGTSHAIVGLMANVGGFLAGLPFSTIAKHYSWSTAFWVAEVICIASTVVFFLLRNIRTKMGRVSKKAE

[2] = Stability of mumbaistatin in solution; type: physicochemical
[3] = target: T2, microsomal glucose-6-phosphatase (Rattus norvegicus, UniProt P43428); assay: Inhibition of microsomal glucose-6-phosphatase; type: biochemical
T2 construct: from tissue; host or cells: liver microsomes (rat inferred)
T2 sequence (P43428 1-357): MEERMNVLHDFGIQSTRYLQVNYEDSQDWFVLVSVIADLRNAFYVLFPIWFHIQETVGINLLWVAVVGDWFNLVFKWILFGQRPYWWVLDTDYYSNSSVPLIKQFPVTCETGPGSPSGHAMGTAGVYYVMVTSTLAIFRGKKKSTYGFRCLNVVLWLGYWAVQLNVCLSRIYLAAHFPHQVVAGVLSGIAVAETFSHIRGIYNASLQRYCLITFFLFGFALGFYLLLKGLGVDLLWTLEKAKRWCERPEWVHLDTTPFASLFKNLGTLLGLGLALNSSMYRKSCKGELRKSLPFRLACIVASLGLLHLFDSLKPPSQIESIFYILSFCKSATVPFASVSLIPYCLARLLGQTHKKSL

- IC50 ([1]; read-out: Inhibition of glucose-6-phosphate translocase: IC50): > 100000 nM
Molecule: COC(=O)CC1CCC2(O1)OC1(OC(=O)c3c(OC)cc4c(c31)C(=O)c1c(O)cccc1C4=O)c1c(OC)cccc12 (stereo not shown) [XIXB]

- IC50 ([1]; read-out: inhibits glucose-6-phosphate translocase with an IC50): ~1000 nM
Molecule: NC(=O)c1c(O)cc2c(c1C(=O)c1c(O)cccc1C1(O)CCC(CC(=O)O)O1)C(=O)c1c(O)cccc1C2=O (stereo not shown) [XXIIIA]

- IC50 ([1]; rat liver microsomes, listed as mumbaistain, read-out: Inhibition of glucose-6-phosphate translocase, IC50): ~5 nM
- IC50 ([1]; rat liver microsomes, read-out: Inhibition of glucose-6-phosphate translocase, IC50): 5 nM
- stability in solution at acid pH ([2]; acid pH, conversion e.g. to compound of formula XIXD): rapidly undergoes a complex conversion
- stability in solution ([2]; pH of around 6 to 9): limited stability
- Inhibition of microsomal glucose-6-phosphatase in 10 μM solution [3]: activity was not demonstrable
Molecule: mumbaistatin
